Data as given in paper PMC11418212, “Characterization of four structurally diverse inhibitors of SUR2-containing KATP channels” (Channels, 2024).
Entries after “also recorded” stand apart in the source; their conditions may differ.

Biological target: Kir6.2/SUR1 (Homo sapiens, UniProt Q09428)
Test: Quantitative thallium flux assay, inhibition, stably transfected T-REx-HEK293 cells
Assay type: cell-based
Conditions: for Effect on Kir6.2/SUR1 channel activity: VU0071063 activation or ATP depletion, full range of doses tested (up to 30 µM); for IC50 / IC50 Kir6.2/SUR1, ATP depletion / IC50 Kir6.2/SUR1, VU0071063 activation: thallium flux; for IC50 / IC50 Kir6.2/SUR1, ATP depletion: ATP depletion with sodium cyanide and 2-deoxy-glucose; for IC50 Kir6.2/SUR1, VU0071063 activation: in the presence of 10 uM VU0071063
Procedure: Briefly, T-Rex-HEK293 cells underwent co-transfection with pcDNA5/TO-Kir6.1 or pcDNA5/TO-Kir6.2 (inducible expression) and pcDNA3.1-SUR2B or pcDNA3.1-SUR1 (constitutive expression) using Lipofectamine LTX following the manufacturer’s instructions and were then subjected to selection with antibiotics. Monoclonal cell lines were established through limiting dilution and characterization in thallium flux assays described below. […] KATP channel selectivity assays were performed in HEK293 cells transiently transfected with the indicated subunit using Lipofectamine LTX. The cells were incubated for 48 h after transfection before performing thallium flux assays.
Thallium flux assays were conducted using the established methods. Stably transfected T-REx-HEK-293 cells expressing Kir6.2/SUR1 or Kir6.1/SUR2B were cultured overnight in polyamine-coated plates (black-walled, clear-bottomed; BD, Bedford, MA) at a density of 20,000 cells in 20 µl per well of cell culture media. The expression of Kir6.2/SUR1 or Kir6.1/SUR2B channels was induced by treating cells with 1 µg/ml tetracycline overnight. The following day, cells were rinsed with an assay buffer (Hanks’ Balanced Salt Solution supplied with 20 mM HEPES), loaded with the thallium-sensor dye Brilliant Thallos-AM AM (Ion Bioscience, San Marcos, TX) for 1 h, and then washed again with assay buffer to remove unincorporated dye. […] To activate KATP channels independent of activators with ATP-depletion method, cells were treated with a cocktail of metabolic inhibitors (2.5 mM sodium cyanide and 20 mM 2-deoxy glucose) for 25 min before imagine. Control and test compounds diluted freshly from DMSO stocks into assay buffer were added to wells for four minutes before adding 0.5 mM chloride-free thallium stimulus buffer (Ion Bioscience) to initiate thallium flux through the expressed KATP channels. Thallium flux was recorded from all 384-wells for 2 min before terminating the experiment. […] Selectivity assays against other Kir channels were performed as described previously.
The kinetic fluorescence measurements (F) from each well were normalized to the initial reading (F0), producing static ratios (F/F0) that adjust for variations in cell count and dye uptake. […] The response (maxmin2) was determined by subtracting the min value from the max value. Percent inhibition was calculated by normalizing each well’s response to the positive and negative controls. Concentration–response curves were fitted using a single-site, four-parameter logistic function in Prism version 4.0 (GraphPad Software Inc., San Diego, CA) to calculate the half-maximal inhibitory concentration (IC50). Statistical comparisons of IC50 values were performed using an extra sum-of-squares F test and the Mann–Whitney test. A p-value of less than 0.05 was considered statistically significant.

Kir6.2/SUR1, sequence (Q09428 whole entry, species assumed): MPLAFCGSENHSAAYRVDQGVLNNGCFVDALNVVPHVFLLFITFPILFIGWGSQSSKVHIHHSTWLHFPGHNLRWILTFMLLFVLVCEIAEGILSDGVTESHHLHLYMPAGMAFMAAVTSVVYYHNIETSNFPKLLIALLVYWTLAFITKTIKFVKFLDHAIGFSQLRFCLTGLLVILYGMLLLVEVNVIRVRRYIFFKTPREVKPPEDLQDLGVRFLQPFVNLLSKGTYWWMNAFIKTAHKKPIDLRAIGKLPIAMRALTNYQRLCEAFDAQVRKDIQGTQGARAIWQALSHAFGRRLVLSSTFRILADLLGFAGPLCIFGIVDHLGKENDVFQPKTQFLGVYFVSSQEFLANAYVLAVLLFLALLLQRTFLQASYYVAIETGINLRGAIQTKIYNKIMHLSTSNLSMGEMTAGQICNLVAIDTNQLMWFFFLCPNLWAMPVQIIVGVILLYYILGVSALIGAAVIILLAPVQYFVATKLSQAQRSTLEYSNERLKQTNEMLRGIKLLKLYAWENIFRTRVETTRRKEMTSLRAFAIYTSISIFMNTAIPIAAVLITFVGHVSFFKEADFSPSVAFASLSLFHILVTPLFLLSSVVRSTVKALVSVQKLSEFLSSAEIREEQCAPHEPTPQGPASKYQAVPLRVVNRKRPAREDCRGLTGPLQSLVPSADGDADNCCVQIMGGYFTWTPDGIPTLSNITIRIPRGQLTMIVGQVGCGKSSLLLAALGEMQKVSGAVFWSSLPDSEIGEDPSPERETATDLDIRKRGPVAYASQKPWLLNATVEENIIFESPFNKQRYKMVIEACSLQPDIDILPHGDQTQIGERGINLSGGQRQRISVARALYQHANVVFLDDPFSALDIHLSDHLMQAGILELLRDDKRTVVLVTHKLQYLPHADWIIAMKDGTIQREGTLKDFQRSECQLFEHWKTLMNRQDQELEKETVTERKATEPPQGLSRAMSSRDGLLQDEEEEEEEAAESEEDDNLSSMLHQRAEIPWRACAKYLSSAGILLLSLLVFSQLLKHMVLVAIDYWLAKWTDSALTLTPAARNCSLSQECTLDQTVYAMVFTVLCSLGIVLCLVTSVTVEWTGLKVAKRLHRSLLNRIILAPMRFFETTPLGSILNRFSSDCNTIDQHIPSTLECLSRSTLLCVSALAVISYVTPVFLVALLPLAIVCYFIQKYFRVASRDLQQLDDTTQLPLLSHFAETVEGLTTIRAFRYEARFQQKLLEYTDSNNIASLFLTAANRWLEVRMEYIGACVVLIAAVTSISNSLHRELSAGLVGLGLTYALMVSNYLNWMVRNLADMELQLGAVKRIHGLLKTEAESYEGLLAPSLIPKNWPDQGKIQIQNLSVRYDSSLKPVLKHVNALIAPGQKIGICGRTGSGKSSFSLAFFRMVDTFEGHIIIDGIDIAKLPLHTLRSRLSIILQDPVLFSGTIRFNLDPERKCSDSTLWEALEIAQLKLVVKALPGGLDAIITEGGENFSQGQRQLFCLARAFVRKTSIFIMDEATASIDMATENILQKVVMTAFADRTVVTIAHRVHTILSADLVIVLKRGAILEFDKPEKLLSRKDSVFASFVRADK
Kir6.2/SUR1, sequence (Q14654 whole entry partner, species assumed): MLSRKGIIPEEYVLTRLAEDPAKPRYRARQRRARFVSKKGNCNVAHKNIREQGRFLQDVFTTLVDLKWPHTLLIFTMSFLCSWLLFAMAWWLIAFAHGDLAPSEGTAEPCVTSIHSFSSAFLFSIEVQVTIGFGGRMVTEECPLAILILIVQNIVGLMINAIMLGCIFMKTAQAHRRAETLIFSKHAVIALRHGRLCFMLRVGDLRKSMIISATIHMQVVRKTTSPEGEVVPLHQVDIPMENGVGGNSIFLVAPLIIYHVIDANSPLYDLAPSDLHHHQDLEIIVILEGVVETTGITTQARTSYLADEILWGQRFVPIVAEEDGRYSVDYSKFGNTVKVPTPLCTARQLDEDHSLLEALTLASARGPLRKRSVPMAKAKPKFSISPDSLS

Row | Structure (SMILES) | Effect on Kir6.2/SUR1 channel activity | IC50 [µM] | IC50 Kir6.2/SUR1, ATP depletion | IC50 Kir6.2/SUR1, VU0071063 activation
1 | c1ccc2[nH]c(CSc3ncnc4c3oc3ccccc34)nc2c1 [VU0212387, 4-(((1 H-benzo[d]imidazol-2-yl)methyl)thio)benzofuro[3,2-d]pyrimidine] | no apparent inhibitory activity; also recorded: no effect | > 30 | no fit | no fit
2 | O=C(NCC(O)(c1ccccc1)C(F)(F)F)c1ccc(OC(F)(F)F)cc1 (stereo not shown) [VU0543336, N-(3,3,3-trifluoro-2-hydroxy-2-phenylpropyl)-4-(trifluoromethoxy)benzamide] | no apparent inhibitory activity; also recorded: no effect | > 30 | no fit | no fit
3 | O=C(NCc1cc(-c2ccncc2)n(C2CCCC2)n1)Nc1cccs1 [VU0544086, 1-((1-cyclopentyl-5-(pyridin-4-yl)-1 H-pyrazol-3-yl)methyl)-3-(thiophen-2-yl)urea] | no apparent inhibitory activity; also recorded: no effect | > 30 | no fit | no fit
4 | O=C1c2oc3ccccc3c(=O)c2C(c2cccc(Br)c2)N1CCO (stereo not shown) [VU0605768, 1-(3-bromophenyl)-2-(2-hydroxyethyl)-1,2-dihydrochromeno[2,3-c]pyrrole-3,9-dione] | no apparent inhibitory activity; also recorded: no effect | > 30 | no fit | no fit
